Test results from publication PMC3556473, “Absorption, metabolism and excretion of [^14C]pomalidomide in humans following oral administration” (Cancer Chemotherapy and Pharmacology, 2012).
pEC50, pIC50: −log10 of the molar value. Several values for one entry are separate records, joined by “and”; a condition that tells them apart may be missing. Equal entries are not always repeated.

Key:
T cell IL-2 production = test: Enhancement of primary human T cell IL-2 production (anti-CD3 stimulated, 2-day culture); format: cell-based; conditions: 48 h, anti-CD3 stimulated primary human T cells
Procedure: (§1) Metabolites and hydrolysis products of pomalidomide were tested for pharmacological activity in the following three assay systems: (1) inhibition of MM cell proliferation, (2) enhancement of primary human T cell IL-2 production and (3) inhibition of TNF-α production by lipopolysaccharide (LPS)-stimulated human peripheral blood mononuclear cells (PBMC). For all three assay types, compounds were dissolved in 100 % dimethyl sulfoxide (DMSO) and diluted into complete cell culture medium, consisting of Roswell Park Memorial Institute (RPMI)-1640 plus penicillin, streptomycin and L-glutamine (Mediatech, Manassas, VA). The MM cell proliferation cell culture medium contained 10 % fetal bovine serum, while the primary human cell cultures contained 10 % human AB serum (Invitrogen, Brown Deer, WI). The final DMSO concentration in the cell culture media was 0.25 %.
(§2) The human MM cell line OPM-2 was obtained from DSMZ (Braunschweig, Germany), and human MM cell lines U266 B1 and NCI-H929 were obtained from ATCC (Manassas, VA). Inhibition of MM cell proliferation was assessed by the [^3H]-thymidine incorporation assay in a 3-day culture in the presence of compounds in complete medium, as previously described. Primary human T cells were isolated from PBMC by negative selection using the RosetteSep T Cell Enrichment Cocktail (STEMCELL Technologies, Tukwila, WA) according to the manufacturer’s procedures. Costimulation of T cell IL-2 production was measured in a 2-day culture of primary human T cells isolated from healthy donors stimulated with anti-CD3 antibody in the presence of compounds, as previously described. Inhibition of TNF-α production by LPS-stimulated human PBMC was measured in a 1-day culture in the presence of compound, as previously described.

H929 MM cell = test: Inhibition of MM cell proliferation ([3H]-thymidine incorporation, 3-day culture); format: cell-based; conditions: Homo sapiens, NCI-H929
Procedure: as §1, §2

U266 MM cell = test: as above; format: cell-based; conditions: Homo sapiens, U-266
Procedure: as §1, §2

OPM-2 MM cell = test: as above; format: cell-based; conditions: Homo sapiens
Procedure: as §1, §2

[1] = Plasma pharmacokinetics of pomalidomide and circulating metabolites by radiochromatography (metabolite profiling); format: in vivo, human; parameters: AUC0–24 / AUC0−∞: concentration or dose not given beside the values; conditions: for Plasma (% AUC relative to TRA): AUC0–24 (unchanged drug or metabolite)/AUC0–24 (TRA) * 100 %; for Tmax / half-life: human, oral, 2 mg; for Tmax: median and range; for half-life: male, read-out: t ½ (converted); for AUC/AUCTRA: plasma exposure relative to total radioactivity
Procedure: Individual plasma samples collected from all subjects at 1, 2.5, 4, 6, 10, 12 and 24 h post-dose were analyzed for metabolite profiling. Samples were extracted with acetonitrile, the supernatant was removed, and the pellet was washed with 0.1 % formic acid in water and extracted again with acetonitrile. The combined supernatants were adjusted to 15 or 25 mL by adding acetonitrile then evaporated to dryness under a stream of nitrogen. The residues were re-suspended in 0.1 % formic acid in water, assayed for extraction recovery and analyzed for metabolite profiling. A control plasma sample spiked with [^14C]pomalidomide was extracted in a similar manner to determine the extraction efficiency and stability of [^14C]pomalidomide.
(§3) HPLC analysis for metabolite profiling (HPLC Method 1) was performed using a Waters 2695 Alliance Separation Module (Waters Corp., Milford, MA) with the autosampler set to 4 °C. [^14C]Pomalidomide and metabolites were separated using an ACE C18 column (150 × 4.6 mm, 3 μm; Advanced Chromatography Technologies, Aberdeen, Scotland) equipped with an ACE C18 guard column (10 × 3 mm, 3 μm). The mobile phases used were 25 mM ammonium acetate in water: pH 5.5 with formic acid (mobile phase A) and methanol (mobile phase B). The column temperature was 30 °C, and the flow rate was 0.7 mL/min. The linear gradient was delivered as follows: 0–2 min 100 % A; 2–38 min to 64 % A; 38–44 min to 0 % A; 44–48 min hold at 0 % A; return to initial conditions over 2 min.
(§4) Radioactivity profiles for plasma and excreta were determined by collecting the column eluate into 96-well Deepwell LumaPlates™ at a rate of 0.25 min/fraction. The plates were dried and the radioactivity in each well determined using a PerkinElmer TopCount® NXT™ Microplate Scintillation Counter. HPLC radiochromatograms were reconstructed using LC-ARC data handling software.
For pomalidomide and metabolite concentrations in plasma based on metabolite profiling data, pharmacokinetic data were generated by non-compartmental analysis of plasma versus time profiles using WinNonlin (version 4.1, Enterprise Edition).

[2] = Metabolite profiling of urine and feces (% of dose excreted); format: in vivo, human; conditions: for % of dose excreted, Feces: pooled feces 0–96 h; for % of dose excreted, Feces / % of dose excreted, Urine: radiochromatography; for % of dose excreted, Urine: pooled urine 0–72 h
Procedure: For each subject, urine samples were pooled using an equal percentage by volume of the 0–6, 6–12, 12–24, 24–48 and 48–72 h samples. Pools of the 0–6, 6–12, 12–24, 24–48 and 48-72 h collections were also prepared across subjects and analyzed for metabolite profiling. Samples were mixed and centrifuged prior to the supernatants being transferred to fresh tubes for metabolite profiling analysis.
For each subject, fecal homogenates for metabolite profiling were pooled using an equal percentage by weight of the 0–24, 24–48, 48–72 and 72–96 h samples. Pools of the 0–24, 24-48, 48–72 and 72–96 h collections were also prepared across subjects and analyzed for metabolite profiling. An aliquot of each pool was extracted with acetonitrile; samples were mixed and centrifuged. The supernatant was removed and the pellets re-suspended with 0.1 % formic acid and extracted with acetonitrile. The combined supernatants were evaporated to dryness under a stream of nitrogen and the residue re-suspended in methanol:0.1 % formic acid in water (1:1). Samples were assayed for extraction recovery prior to metabolite profiling. A control fecal homogenate spiked with [^14C]pomalidomide was extracted in a similar manner to determine the extraction efficiency and stability of [^14C]pomalidomide.
as §3, §4

PBMC TNF-α production = test: Inhibition of TNF-α production by LPS-stimulated human PBMC (1-day culture); format: cell-based; conditions: 24 h
Procedure: as §1, §2

[3] = plasma, plasma, radiochromatography, geometric mean (%CV)
[4] = plasma, radiochromatography, geometric mean (%CV)

## Nc1cccc2c1C(=O)N(C1CCC(=O)NC1=O)C2=O (racemic) [Pomalidomide, (RS)-4-amino-2-(2,6-dioxo-piperidin-3-yl)-isoindoline-1,3-dione]
T cell IL-2 production
  pEC50: 7.66
H929 MM cell
  pIC50: 7.46
U266 MM cell
  pIC50: 7.55
OPM-2 MM cell
  pIC50: 7.42
[1]
  Plasma (% AUC relative to TRA): 69.6%
  AUC/AUCTRA: 70% and 69.6%
[1]; plasma, radiochromatography
  Tmax: 2.5 h
[1]; [3]
  half-life: 9.4 h
[1]; listed as pomalidomide
  AUC/AUCTRA: approximately 70%
[1]; [4]
  AUC0–24: 135 (33.4) ngEq*h/mL
  AUC0−∞: 165 (43.2) ngEq*h/mL
  C max: 11.0 (22.5) ngEq/mL
  t ½: 9.41 (25.0) h
[2]; pomalidomide, this study
  Percent dose excreted in human urine, Parent: 2.2%
  Percent dose excreted in human urine, Total: 72.8%
[2]
  % of dose excreted, Feces: 7.7%
  % of dose excreted, Urine: 2.2%
[2]; listed as pomalidomide
  % of dose excreted, Feces: 8%
[2]; urine + feces, % of the dose
  dose excreted as unchanged drug (excreta): 10%
PBMC TNF-α production
  pIC50: 8.51

## Nc1c(O)ccc2c1C(=O)N(C1CCC(=O)NC1=O)C2=O (stereo not shown) [Metabolite M17, 5-hydroxy pomalidomide]
T cell IL-2 production
  pEC50: < 5.00
H929 MM cell
  pIC50: < 6.00
U266 MM cell
  pIC50: < 6.00
OPM-2 MM cell
  pIC50: < 6.00
[1]
  Plasma (% AUC relative to TRA): 4.0%
  AUC/AUCTRA: 4.00%
[1]; plasma, radiochromatography
  Tmax: 2.5 h
[1]; [3]
  half-life: 11 h
[1]; [4]
  AUC0–24: 7.76 (24.8) ngEq*h/mL
  AUC0−∞: 11.5 (36.9) ngEq*h/mL
  C max: 0.68 (33.3) ngEq/mL
[2]
  % of dose excreted, Feces: 2.8%
  % of dose excreted, Urine: 3.2%
PBMC TNF-α production
  pIC50: < 5.00
